Experimental data from the supplement of paper PMC11061612.

Assays:
[1] = system: 23132-87 (Gastric Carcinoma); test: Bliss excess, mean over the matrix (fraction); higher = more synergy
Summary of the method: (§1)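 After 24 hours at 37°C and 5% CO2 in 1536-well plates, cells in DMEM/F12 or RPMI plus 10% FBS received two-drug dose matrices for 72 hours. Viability came from CellTiter-Glo 2.0 luminescence and was scaled as inhibition, anchored at 0 by vehicle wells and at 1 by blank wells. Combination Emax is taken as the second-highest inhibition in the matrix, and Bliss excess as the observed combination effect less EA + EB − EA·EB, with EA and EB the single-agent effects.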

[2] = system: A2058 (Melanoma); test: as above
Summary of the method: as §1

[3] = system: CAL-120 (Breast Carcinoma); test: as above
Summary of the method: as §1

[4] = system: FADU (Head and Neck Carcinoma); test: as above
Summary of the method: as §1

[5] = system: GB-1 (Glioblastoma); test: as above
Summary of the method: as §1

[6] = system: GP5d (Colorectal Carcinoma); test: as above
Summary of the method: as §1

[7] = system: HCT-15 (Colorectal Carcinoma); test: as above
Summary of the method: as §1

[8] = system: HEC-1 (Endometrial Carcinoma); test: as above
Summary of the method: as §1

[9] = system: KE-37 (T-Lymphoblastic Leukemia); test: as above
Summary of the method: as §1

[10] = system: LB996-RCC (Kidney Carcinoma); test: as above
Summary of the method: as §1

[11] = system: LN-229 (Glioblastoma); test: as above
Summary of the method: as §1

[12] = system: LXF-289 (Lung Adenocarcinoma); test: as above
Summary of the method: as §1

[13] = system: NCI-H23 (Lung Adenocarcinoma); test: as above
Summary of the method: as §1

[14] = system: NCI-H446 (Small Cell Lung Carcinoma); test: as above
Summary of the method: as §1

[15] = system: OAW-42 (Ovarian Carcinoma); test: as above
Summary of the method: as §1

[16] = system: RERF-GC-1B (Gastric Carcinoma); test: as above
Summary of the method: as §1

[17] = system: RERF-LC-Sq1 (Squamous Cell Lung Carcinoma); test: as above
Summary of the method: as §1

[18] = system: SF268 (Low Grade Glioma); test: as above
Summary of the method: as §1

[19] = system: SU-DHL-10 (B-Cell Non-Hodgkin's Lymphoma); test: as above
Summary of the method: as §1

[20] = system: WM278 (Melanoma); test: as above
Summary of the method: as §1

[21] = system: WM793B (Melanoma); test: as above
Summary of the method: as §1

[22] = system: 23132-87 (Gastric Carcinoma); test: combination Emax (second highest fraction inhibited in the dose matrix, 72 h); higher = more inhibition; extreme values may be limits of the assay
Summary of the method: as §1

[23] = system: A2058 (Melanoma); test: as above
Summary of the method: as §1

[24] = system: CAL-120 (Breast Carcinoma); test: as above
Summary of the method: as §1

[25] = system: FADU (Head and Neck Carcinoma); test: as above
Summary of the method: as §1

[26] = system: GB-1 (Glioblastoma); test: as above
Summary of the method: as §1

[27] = system: GP5d (Colorectal Carcinoma); test: as above
Summary of the method: as §1

[28] = system: HCT-15 (Colorectal Carcinoma); test: as above
Summary of the method: as §1

[29] = system: HEC-1 (Endometrial Carcinoma); test: as above
Summary of the method: as §1

[30] = system: KE-37 (T-Lymphoblastic Leukemia); test: as above
Summary of the method: as §1

[31] = system: LB996-RCC (Kidney Carcinoma); test: as above
Summary of the method: as §1

[32] = system: LN-229 (Glioblastoma); test: as above
Summary of the method: as §1

[33] = system: LXF-289 (Lung Adenocarcinoma); test: as above
Summary of the method: as §1

[34] = system: NCI-H23 (Lung Adenocarcinoma); test: as above
Summary of the method: as §1

[35] = system: NCI-H446 (Small Cell Lung Carcinoma); test: as above
Summary of the method: as §1

[36] = system: OAW-42 (Ovarian Carcinoma); test: as above
Summary of the method: as §1

[37] = system: RERF-GC-1B (Gastric Carcinoma); test: as above
Summary of the method: as §1

[38] = system: RERF-LC-Sq1 (Squamous Cell Lung Carcinoma); test: as above
Summary of the method: as §1

[39] = system: SF268 (Low Grade Glioma); test: as above
Summary of the method: as §1

[40] = system: SU-DHL-10 (B-Cell Non-Hodgkin's Lymphoma); test: as above
Summary of the method: as §1

[41] = system: WM278 (Melanoma); test: as above
Summary of the method: as §1

[42] = system: WM793B (Melanoma); test: as above
Summary of the method: as §1
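Wherever Bliss excess, mean over the matrix is given: after 72 h of two-drug dosing.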

Compound: CC(=O)c1c(C)c2cnc(Nc3ccc(N4CCNCC4)cn3)nc2n(C2CCCC2)c1=O [Palbociclib] + CN(CC[C@H](CSC1=CC=CC=C1)NC2=C(C=C(C=C2)S(=O)(=O)NC(=O)C3=CC=C(C=C3)N4CCC(CC4)[C@H](C5=CC=CC=C5C6=CC=C(C=C6)Cl)O)S(=O)(=O)C(F)(F)F)CCO [AZD4320] (first compound max 10 µM, 7x7, partner max 1 µM)
- Bliss excess [1]: -0.093
- Bliss excess [2]: -0.0261
- Bliss excess [3]: -0.0614
- Bliss excess [4]: -0.137
- Bliss excess [5]: -0.111
- Bliss excess [6]: 0.0238
- Bliss excess [7]: -0.0286
- Bliss excess [8]: -0.125
- Bliss excess [9]: -0.0137
- Bliss excess [10]: -0.0652
- Bliss excess [11]: -0.059
- Bliss excess [12]: -0.0091
- Bliss excess [13]: -0.0367
- Bliss excess [14]: -0.0065
- Bliss excess [15]: -0.0177
- Bliss excess [16]: -0.0147
- Bliss excess [17]: -0.0176
- Bliss excess [18]: -0.0438
- Bliss excess [19]: 0.0319
- Bliss excess [20]: -0.106
- Bliss excess [21]: -0.0525
- combination Emax [22]: 0.578
- combination Emax [23]: 0.323
- combination Emax [24]: 0.815
- combination Emax [25]: 0.356
- combination Emax [26]: 0.209
- combination Emax [27]: 0.592
- combination Emax [28]: 0.726
- combination Emax [29]: 0.298
- combination Emax [30]: 1
- combination Emax [31]: 0.729
- combination Emax [32]: 0.126
- combination Emax [33]: 0.449
- combination Emax [34]: 0.312
- combination Emax [35]: 0.887
- combination Emax [36]: 0.562
- combination Emax [37]: 0.35
- combination Emax [38]: 0.575
- combination Emax [39]: 0.35
- combination Emax [40]: 0.995
- combination Emax [41]: 0.711
- combination Emax [42]: 0.474
